The source made the active and inactive calls. No cut-off for these calls is given here.
Experiments:
[1] = Toxicity in po dosed Spanish V-line rabbit assessed as mortality after 24 hrs; assay type: organism-based, Oryctolagus cuniculus; settings: in vivo
Oryctolagus cuniculus [2] = experiment: In vivo inhibition of Spanish V-line rabbit liver alpha-glucosidase assessed as specific enzyme activity per mg protein using maltose as substrate at 10% LD50, po after 8 hrs; assay type: functional
Oryctolagus cuniculus [3] = experiment: In vivo inhibition of Spanish V-line rabbit liver alpha-glucosidase assessed as specific enzyme activity per mg protein using maltose as substrate at 10% LD50, po after 16 hrs; assay type: functional
Oryctolagus cuniculus [4] = experiment: In vivo inhibition of Spanish V-line rabbit liver alpha-glucosidase assessed as specific enzyme activity per mg protein using maltose as substrate at 10% LD50, po after 24 hrs; assay type: functional
Oryctolagus cuniculus [5] = experiment: In vivo inhibition of Spanish V-line rabbit liver alpha-glucosidase assessed as specific enzyme activity per mg protein using maltose as substrate at 10% LD50, po after 48 hrs; assay type: functional
Oryctolagus cuniculus [6] = experiment: In vivo inhibition of Spanish V-line rabbit liver alpha-glucosidase assessed as specific enzyme activity per mg protein using maltose as substrate at 10% LD50, po after 72 hrs; assay type: functional
Oryctolagus cuniculus [7] = experiment: In vivo inhibition of Spanish V-line rabbit liver alpha-glucosidase assessed as specific enzyme activity per mg protein using maltose as substrate at 10% LD50, po after 96 hrs; assay type: functional
Oryctolagus cuniculus [8] = experiment: In vivo inhibition of Spanish V-line rabbit liver alpha-amylase assessed as specific enzyme activity per mg protein using starch as substrate at 10% LD50, po after 8 hrs; assay type: functional
Oryctolagus cuniculus [9] = experiment: In vivo inhibition of Spanish V-line rabbit liver alpha-amylase assessed as specific enzyme activity per mg protein using starch as substrate at 10% LD50, po after 16 hrs; assay type: functional
Oryctolagus cuniculus [10] = experiment: In vivo inhibition of Spanish V-line rabbit liver alpha-amylase assessed as specific enzyme activity per mg protein using starch as substrate at 10% LD50, po after 24 hrs; assay type: functional
Oryctolagus cuniculus [11] = experiment: In vivo inhibition of Spanish V-line rabbit liver alpha-amylase assessed as specific enzyme activity per mg protein using starch as substrate at 10% LD50, po after 48 hrs; assay type: functional
Oryctolagus cuniculus [12] = experiment: In vivo inhibition of Spanish V-line rabbit liver alpha-amylase assessed as specific enzyme activity per mg protein using starch as substrate at 10% LD50, po after 72 hrs; assay type: functional
Oryctolagus cuniculus [13] = experiment: In vivo inhibition of Spanish V-line rabbit liver alpha-amylase assessed as specific enzyme activity per mg protein using starch as substrate at 10% LD50, po after 96 hrs; assay type: functional
Oryctolagus cuniculus [14] = experiment: In vivo inhibition of Spanish V-line rabbit liver alpha-amylase assessed as specific enzyme activity per mg protein using starch as substrate at 10% LD50, po after 120 hrs; assay type: functional
Oryctolagus cuniculus [15] = experiment: In vivo inhibition of Spanish V-line rabbit alpha-glucosidase using maltose as substrate at 25% LD50, po after 24 hrs relative to control; assay type: functional
Oryctolagus cuniculus [16] = experiment: In vivo inhibition of Spanish V-line rabbit liver alpha-glucosidase assessed as specific enzyme activity per mg protein using maltose as substrate at 10% LD50, po after 120 hrs; assay type: functional
Oryctolagus cuniculus [17] = experiment: In vivo inhibition of alpha-glucosidase in po dosed Spanish V-line rabbit using maltose as substrate after 24 hrs; assay type: functional, organism-based
Oryctolagus cuniculus [18] = experiment: In vivo inhibition of alpha-amylase in po dosed Spanish V-line rabbit using starch as substrate at after 24 hrs; assay type: functional, organism-based
Oryctolagus cuniculus [19] = experiment: In vivo inhibition of Spanish V-line rabbit alpha-amylase using starch as substrate at 25% LD50, po after 24 hrs relative to control; assay type: functional
[20] = Inhibition of Spanish V-line rabbit liver alpha-glucosidase using maltose as substrate after 5 mins by spectrophotometry; design: species or system Oryctolagus cuniculus
Oryctolagus cuniculus [21] = species: Oryctolagus cuniculus; experiment: Reversible Inhibition of Spanish V-line rabbit liver alpha-glucosidase using maltose as substrate compound preincubated for 60 mins by dialysis method
Oryctolagus cuniculus [22] = species: Oryctolagus cuniculus; experiment: Reversible Inhibition of Spanish V-line rabbit liver alpha-amylase using starch as substrate compound preincubated for 60 mins by dialysis method
Oryctolagus cuniculus [23] = species: Oryctolagus cuniculus; experiment: Inhibition of Spanish V-line rabbit liver alpha-amylase using starch as substrate assessed per mg protein at 16 uM by Lineweaver-Burk plot ( RVb = 9.0 +/- 0.8 10^-3 uM/min/mg protein )
Oryctolagus cuniculus [24] = species: Oryctolagus cuniculus; experiment: Inhibition of Spanish V-line rabbit liver alpha-amylase using starch as substrate assessed per mg protein at 32 uM by Lineweaver-Burk plot ( RVb = 9.0 +/- 0.8 10^-3 uM/min/mg protein )
Oryctolagus cuniculus [25] = species: Oryctolagus cuniculus; experiment: Inhibition of Spanish V-line rabbit liver alpha-amylase using starch as substrate assessed per mg protein at 64 uM by Lineweaver-Burk plot ( RVb = 9.0 +/- 0.8 10^-3 uM/min/mg protein )
Oryctolagus cuniculus [26] = species: Oryctolagus cuniculus; experiment: Inhibition of Spanish V-line rabbit liver alpha-amylase using starch as substrate assessed per mg protein at 48 uM by Lineweaver-Burk plot ( RVb = 9.0 +/- 0.8 10^-3 uM/min/mg protein )
Oryctolagus cuniculus [27] = species: Oryctolagus cuniculus; experiment: Inhibition of Spanish V-line rabbit liver alpha-glucosidase using maltose as substrate assessed per mg protein at 16 uM by Lineweaver-Burk plot ( RVb = 55 +/- 5 10^-3 uM/min/mg protein )
Oryctolagus cuniculus [28] = species: Oryctolagus cuniculus; experiment: Inhibition of Spanish V-line rabbit liver alpha-glucosidase using maltose as substrate assessed per mg protein at 32 uM by Lineweaver-Burk plot ( RVb = 55 +/- 5 10^-3 uM/min/mg protein )
Oryctolagus cuniculus [29] = species: Oryctolagus cuniculus; experiment: Inhibition of Spanish V-line rabbit liver alpha-glucosidase using maltose as substrate assessed per mg protein at 48 uM by Lineweaver-Burk plot ( RVb = 55 +/- 5 10^-3 uM/min/mg protein )
Oryctolagus cuniculus [30] = species: Oryctolagus cuniculus; experiment: Inhibition of Spanish V-line rabbit liver alpha-glucosidase using maltose as substrate assessed per mg protein at 64 uM by Lineweaver-Burk plot ( RVb = 55 +/- 5 10^-3 uM/min/mg protein )
[31] = Competitive inhibition of Spanish V-line rabbit liver alpha-glucosidase using maltose as substrate by Dixon plot analysis; design: species or system Oryctolagus cuniculus
Oryctolagus cuniculus [32] = species: Oryctolagus cuniculus; experiment: Competitive inhibition of Spanish V-line rabbit liver alpha-glucosidase using maltose as substrate
Oryctolagus cuniculus [33] = species: Oryctolagus cuniculus; experiment: Inhibition of Spanish V-line rabbit liver alpha-amylase using starch as substrate
[34] = Inhibition of Spanish V-line rabbit liver alpha-amylase using starch as substrate after 5 mins by spectrophotometry; design: species or system Oryctolagus cuniculus
Oryctolagus cuniculus [35] = species: Oryctolagus cuniculus; experiment: Inhibition of Spanish V-line rabbit liver alpha-glucosidase using maltose as substrate assessed per mg protein at 16 uM by Lineweaver-Burk plot ( RVb = 53 +/- 5 10^-3 uM/min/mg protein )
Oryctolagus cuniculus [36] = species: Oryctolagus cuniculus; experiment: Inhibition of Spanish V-line rabbit liver alpha-glucosidase using maltose as substrate assessed per mg protein at 32 uM by Lineweaver-Burk plot ( RVb = 53 +/- 5 10^-3 uM/min/mg protein )
Oryctolagus cuniculus [37] = species: Oryctolagus cuniculus; experiment: Inhibition of Spanish V-line rabbit liver alpha-glucosidase using maltose as substrate assessed per mg protein at 64 uM by Lineweaver-Burk plot ( RVb = 53 +/- 5 10^-3 uM/min/mg protein )
Oryctolagus cuniculus [38] = species: Oryctolagus cuniculus; experiment: Inhibition of Spanish V-line rabbit liver alpha-glucosidase using maltose as substrate assessed per mg protein at 48 uM by Lineweaver-Burk plot ( RVb = 53 +/- 5 10^-3 uM/min/mg protein )
[39] = Competitive inhibition of Spanish V-line rabbit liver alpha-glucosidase using maltose as substrate by Lineweaver-Burk plot analysis; design: species or system Oryctolagus cuniculus
[40] = Non-competitive inhibition of Spanish V-line rabbit liver alpha-amylase using starch as substrate by Lineweaver-Burk plot analysis; design: species or system Oryctolagus cuniculus
[41] = Non-competitive inhibition of Spanish V-line rabbit liver alpha-amylase using starch as substrate by Dixon plot analysis; design: species or system Oryctolagus cuniculus
Oryctolagus cuniculus [42] = species: Oryctolagus cuniculus; experiment: Non-competitive inhibition of Spanish V-line rabbit liver alpha-amylase using starch as substrate
Oryctolagus cuniculus [43] = species: Oryctolagus cuniculus; experiment: Inhibition of Spanish V-line rabbit liver alpha-glucosidase using maltose as substrate assessed per mg protein at 12 uM by Lineweaver-Burk plot ( RVb = 55 +/- 5.2 10^-3 uM/min/mg protein )
Oryctolagus cuniculus [44] = species: Oryctolagus cuniculus; experiment: Inhibition of Spanish V-line rabbit liver alpha-glucosidase using maltose as substrate assessed per mg protein at 24 uM by Lineweaver-Burk plot ( RVb = 55 +/- 5.2 10^-3 uM/min/mg protein )
Oryctolagus cuniculus [45] = species: Oryctolagus cuniculus; experiment: Inhibition of Spanish V-line rabbit liver alpha-glucosidase using maltose as substrate assessed per mg protein at 36 uM by Lineweaver-Burk plot ( RVb = 55 +/- 5.2 10^-3 uM/min/mg protein )
Oryctolagus cuniculus [46] = species: Oryctolagus cuniculus; experiment: Inhibition of Spanish V-line rabbit liver alpha-glucosidase using maltose as substrate assessed per mg protein at 48 uM by Lineweaver-Burk plot ( RVb = 55 +/- 5.2 10^-3 uM/min/mg protein )
Oryctolagus cuniculus [47] = species: Oryctolagus cuniculus; experiment: Inhibition of Spanish V-line rabbit liver alpha-amylase using starch as substrate assessed per mg protein at 12 uM by Lineweaver-Burk plot ( RVb = 9.0 +/- 0.8 10^-3 uM/min/mg protein )
Oryctolagus cuniculus [48] = species: Oryctolagus cuniculus; experiment: Inhibition of Spanish V-line rabbit liver alpha-amylase using starch as substrate assessed per mg protein at 24 uM by Lineweaver-Burk plot ( RVb = 9.0 +/- 0.8 10^-3 uM/min/mg protein )
Oryctolagus cuniculus [49] = species: Oryctolagus cuniculus; experiment: Inhibition of Spanish V-line rabbit liver alpha-amylase using starch as substrate assessed per mg protein at 36 uM by Lineweaver-Burk plot ( RVb = 9.0 +/- 0.8 10^-3 uM/min/mg protein )
[50] = Non-competitive inhibition of Spanish V-line rabbit liver alpha-glucosidase using maltose as substrate by Dixon plot analysis; design: species or system Oryctolagus cuniculus
[51] = Non-competitive inhibition of Spanish V-line rabbit liver alpha-glucosidase using maltose as substrate by Lineweaver-Burk plot analysis; design: species or system Oryctolagus cuniculus
Oryctolagus cuniculus [52] = species: Oryctolagus cuniculus; experiment: Non-competitive inhibition of Spanish V-line rabbit liver alpha-glucosidase using maltose as substrate

SMILES	LD50 at 24 h [1] [mg/kg]	Activity (Oryctolagus cuniculus [2]) [µM/min]	Activity (Oryctolagus cuniculus [3]) [µM/min]	Activity (Oryctolagus cuniculus [4]) [µM/min]	Activity (Oryctolagus cuniculus [5]) [µM/min]	Activity (Oryctolagus cuniculus [6]) [µM/min]	Activity (Oryctolagus cuniculus [7]) [µM/min]	Activity (Oryctolagus cuniculus [8]) [µM/min]	Activity (Oryctolagus cuniculus [9]) [µM/min]	Activity (Oryctolagus cuniculus [10]) [µM/min]	Activity (Oryctolagus cuniculus [11]) [µM/min]	Activity (Oryctolagus cuniculus [12]) [µM/min]	Activity (Oryctolagus cuniculus [13]) [µM/min]	Activity (Oryctolagus cuniculus [14]) [µM/min]	inhibition (INH) (Oryctolagus cuniculus [15]) [%]	Activity (Oryctolagus cuniculus [16]) [µM/min]	inhibition (Oryctolagus cuniculus [17])	inhibition (Oryctolagus cuniculus [18])	inhibition (INH) (Oryctolagus cuniculus [19]) [%]	IC50 [20] [µM]	also measured
Oc1ccccc1-c1nnc(S)n1-c1ccccc1	155	15.6	14.2	13.1	14.2	15.6	16.2	4.8	4.4	4.3	4.4	4.6	4.8	5.1	57	18.8	Dose-dependent effect	Dose-dependent effect	27	105	inhibition (Oryctolagus cuniculus [21]): Active; inhibition (Oryctolagus cuniculus [22]): Active; Vmax (Oryctolagus cuniculus [23]): 9.3 nM/min; Vmax (Oryctolagus cuniculus [24]): 9.2 nM/min; Vmax (Oryctolagus cuniculus [25]): 8.9 nM/min; Vmax (Oryctolagus cuniculus [26]): 9.5 nM/min; Vmax (Oryctolagus cuniculus [27]): 16.6 nM/min; Vmax (Oryctolagus cuniculus [28]): 15.6 nM/min; Vmax (Oryctolagus cuniculus [29]): 12.5 nM/min; Vmax (Oryctolagus cuniculus [30]): 10.2 nM/min; Ki [31]: 50.8 µM; inhibition (Oryctolagus cuniculus [32]): Dose-dependent effect; inhibition (Oryctolagus cuniculus [33]): Dose-dependent effect
Sc1nnc(-c2ccccc2)n1-c1ccccc1	107	18.6	16.7	15.4	16.1	18.5	19.8	4.5	4.1	3.7	4	4.3	4.6	4.7	50	19.9	Dose-dependent effect	Dose-dependent effect	46	67	IC50 [34]: 73 µM; inhibition (Oryctolagus cuniculus [21]): Active; inhibition (Oryctolagus cuniculus [22]): Active; Vmax (Oryctolagus cuniculus [35]): 20 nM/min; Vmax (Oryctolagus cuniculus [36]): 18 nM/min; Vmax (Oryctolagus cuniculus [37]): 12.5 nM/min; Vmax (Oryctolagus cuniculus [23]): 8 nM/min; Vmax (Oryctolagus cuniculus [24]): 6.3 nM/min; Vmax (Oryctolagus cuniculus [25]): 5.3 nM/min; Vmax (Oryctolagus cuniculus [38]): 16.6 nM/min; Vmax (Oryctolagus cuniculus [26]): 5.4 nM/min; Ki [31]: 38 µM; Ki [39]: 42 µM; Ki [40]: 72 µM; Ki [41]: 65 µM; inhibition (Oryctolagus cuniculus [32]): Dose-dependent effect; inhibition (Oryctolagus cuniculus [42]): Dose-dependent effect
S=C1N=C(c2ccccc2)C(c2ccccc2)=N1	204	17.6	15.2	14.3	15.6	16.9	19.3	3.8	3.1	2.3	2.9	3.3	4.3	4.4	62	23.5	Dose-dependent effect	Dose-dependent effect	53	56	Vmax (Oryctolagus cuniculus [43]): 41 nM/min; IC50 [34]: 47 µM; inhibition (Oryctolagus cuniculus [21]): Active; inhibition (Oryctolagus cuniculus [22]): Active; Vmax (Oryctolagus cuniculus [44]): 33 nM/min; Vmax (Oryctolagus cuniculus [45]): 27 nM/min; Vmax (Oryctolagus cuniculus [46]): 2.4 nM/min; Vmax (Oryctolagus cuniculus [47]): 8.3 nM/min; Vmax (Oryctolagus cuniculus [48]): 7.1 nM/min; Vmax (Oryctolagus cuniculus [49]): 6.3 nM/min; Vmax (Oryctolagus cuniculus [26]): 5.5 nM/min; Ki [50]: 43 µM; Ki [51]: 35 µM; Ki [40]: 63 µM; Ki [41]: 60 µM; inhibition (Oryctolagus cuniculus [52]): Dose-dependent effect; inhibition (Oryctolagus cuniculus [42]): Dose-dependent effect

Reference: ChEMBL document CHEMBL2151017, “Inhibition of α-glucosidase and α-amylase by diaryl derivatives of imidazole-thione and 1,2,4-triazole-thiol” (Eur J Med Chem, 2011)
